Molecules are shown by their SMILES. Where a SMILES comes first, the peptide text is derived from it. [ ]: non-standard residue; d: D form.

One assay deals with T1, PSD-95-PDZ2 (Homo sapiens, UniProt P78352).
T1 construct: 7xHis (N); made in house; host or cells: Escherichia coli B21 pLys (for the mutants, 'as previously described')
T1 sequence (P78352 160-246 limits assumed): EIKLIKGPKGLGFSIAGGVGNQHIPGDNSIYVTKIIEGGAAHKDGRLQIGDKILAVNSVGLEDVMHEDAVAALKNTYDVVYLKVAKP
Nature of the assay: Fluorescence polarization (FP) competition assay against cyclic nNOS TAMRA probe. It counts as binding. The conditions noted are these: FP competition, cyclic nNOS TAMRA probe; mean of triplicates; N.B. = not binding; read-out: Ki.
Usually Ki stands for a measure of affinity in units of concentration, obtained from inhibition or displacement. In the case of `CC(C)C[C@@H]1NC(=O)[C@H](Cc2c[nH]cn2)NC(=O)[C@H]([C@@H](C)O)NC(=O)[C@H](CCC(N)=O)NC(=O)CNC(=O)[C@H]2CCCN2C(=O)[C@H](CCC(N)=O)NC(=O)[C@H]([C@@H](C)O)NC(=O)[C@H](C(C)C)NC(=O)[C@H](CCCNC(=N)N)NC(=O)[C@H](CCCNC(=N)N)NC(=O)[C@H]([C@@H](C)O)NC(=O)[C@H](CCCCN)NC(=O)[C@@H]2CCCN2C(=O)[C@H]([C@@H](C)O)NC(=O)CNC(=O)[C@H](CC(=O)O)NC(=O)CNC(=O)[C@H]([C@@H](C)O)NC(=O)[C@H](Cc2ccccc2)NC(=O)[C@H]([C@@H](C)O)NC(=O)[C@H]([C@@H](C)O)NC(=O)[C@H](CCC(=O)O)NC1=O` [compound 41] (cyclo(THLETTFTGDGTPKTRRVTQ[dP]GQ)), the inhibition constant Ki worked out at 1760 nM.

Staying with this assay, now noted: FP inhibition constant normalized to WT value.
Regarding `CC[C@H](C)[C@@H]1NC(=O)[C@H]([C@@H](C)O)NC(=O)[C@H](CCCCN)NC(=O)[C@@H]2CCCN2C(=O)[C@H](CC(N)=O)NC(=O)CNC(=O)[C@H](CC(=O)O)NC(=O)CNC(=O)[C@H]([C@@H](C)O)NC(=O)[C@H](Cc2ccccc2)NC(=O)[C@H]([C@@H](C)O)NC(=O)[C@H]([C@@H](C)O)NC(=O)[C@H](CCC(=O)O)NC(=O)[C@H](CC(C)C)NC(=O)[C@H](Cc2c[nH]cn2)NC(=O)[C@H]([C@@H](C)O)NC(=O)[C@H](CCC(N)=O)NC(=O)CNC(=O)[C@H]2CCCN2C(=O)[C@H](CCC(N)=O)NC(=O)[C@H]([C@@H](C)O)NC(=O)[C@H](C(C)C)NC(=O)[C@H](CCCNC(=N)N)NC1=O` [compound 40] (cyclo(THLETTFTGDGNPKTIRVTQ[dP]GQ)), the “Relative Ki (Ki mut/Ki WT)” value is reported as 0.34. Consider `CC(C)C[C@@H]1NC(=O)[C@H](Cc2c[nH]cn2)NC(=O)[C@H]([C@@H](C)O)NC(=O)[C@H](CCC(N)=O)NC(=O)CNC(=O)[C@H]2CCCN2C(=O)[C@H](CCC(N)=O)NC(=O)[C@H]([C@@H](C)O)NC(=O)[C@H](C(C)C)NC(=O)[C@H](CCCNC(=N)N)NC(=O)[C@H](CCCNC(=N)N)NC(=O)[C@H]([C@@H](C)O)NC(=O)[C@H](CCCCN)NC(=O)[C@@H]2CCCN2C(=O)[C@H]([C@@H](C)O)NC(=O)CNC(=O)[C@H](CC(=O)O)NC(=O)CNC(=O)[C@H]([C@@H](C)O)NC(=O)[C@H](Cc2ccccc2)NC(=O)[C@H]([C@@H](C)O)NC(=O)[C@H]([C@@H](C)O)NC(=O)[C@H](CCC(=O)O)NC1=O` [compound 41] (cyclo(THLETTFTGDGTPKTRRVTQ[dP]GQ)), for which the “Relative Ki (Ki mut/Ki WT)” value worked out at 1.17. `CC(C)C[C@@H]1NC(=O)[C@H](Cc2c[nH]cn2)NC(=O)[C@H]([C@@H](C)O)NC(=O)[C@H](CCC(N)=O)NC(=O)CNC(=O)[C@H]2CCCN2C(=O)[C@H](CCC(N)=O)NC(=O)[C@H]([C@@H](C)O)NC(=O)[C@H](C(C)C)NC(=O)[C@H](CCCNC(=N)N)NC(=O)[C@H](Cc2ccc(O)cc2)NC(=O)[C@H]([C@@H](C)O)NC(=O)[C@H](CCCCN)NC(=O)[C@@H]2CCCN2C(=O)[C@H]([C@@H](C)O)NC(=O)CNC(=O)[C@H](CC(=O)O)NC(=O)CNC(=O)[C@H]([C@@H](C)O)NC(=O)[C@H](Cc2ccccc2)NC(=O)[C@H]([C@@H](C)O)NC(=O)[C@H]([C@@H](C)O)NC(=O)[C@H](CCC(=O)O)NC1=O` [compound 42] (cyclo(THLETTFTGDGTPKTYRVTQ[dP]GQ)): the “Relative Ki (Ki mut/Ki WT)” value was 1.07. On the same count and under the same terms, the same measure for `CC[C@H](C)[C@@H]1NC(=O)[C@H]([C@@H](C)O)NC(=O)[C@H](CCCCN)NC(=O)[C@@H]2CCCN2C(=O)[C@H]([C@@H](C)O)NC(=O)CNC(=O)[C@H](CC(=O)O)NC(=O)CNC(=O)[C@H]([C@@H](C)O)NC(=O)[C@H](Cc2ccccc2)NC(=O)[C@H]([C@@H](C)O)NC(=O)[C@H]([C@@H](C)O)NC(=O)[C@H](CCC(=O)O)NC(=O)[C@H](CC(C)C)NC(=O)[C@H](Cc2c[nH]cn2)NC(=O)[C@H]([C@@H](C)O)NC(=O)[C@H](CCC(N)=O)NC(=O)CNC(=O)[C@H]2CCCN2C(=O)[C@H](CCC(N)=O)NC(=O)[C@H]([C@@H](C)O)NC(=O)[C@H](CCCNC(=N)N)NC(=O)[C@H](CCCNC(=N)N)NC1=O` [compound 43] (cyclo(THLETTFTGDGTPKTIRRTQ[dP]GQ)): 1.13. For the compound `CC[C@H](C)[C@@H]1NC(=O)[C@H]([C@@H](C)O)NC(=O)[C@H](CCCCN)NC(=O)[C@@H]2CCCN2C(=O)[C@H]([C@@H](C)O)NC(=O)CNC(=O)[C@H](CC(=O)O)NC(=O)CNC(=O)[C@H]([C@@H](C)O)NC(=O)[C@H](Cc2ccccc2)NC(=O)[C@H]([C@@H](C)O)NC(=O)[C@H]([C@@H](C)O)NC(=O)[C@H](CCC(=O)O)NC(=O)[C@H](CC(C)C)NC(=O)[C@H](Cc2c[nH]cn2)NC(=O)[C@H]([C@@H](C)O)NC(=O)[C@H](CCC(N)=O)NC(=O)CNC(=O)[C@H]2CCCN2C(=O)[C@H](CCC(N)=O)NC(=O)[C@H](CCCNC(=N)N)NC(=O)[C@H](C(C)C)NC(=O)[C@H](CCCNC(=N)N)NC1=O` [compound 44] (cyclo(THLETTFTGDGTPKTIRVRQ[dP]GQ)), the “Relative Ki (Ki mut/Ki WT)” value turned out to be 1.06. For the compound `CC[C@H](C)[C@@H]1NC(=O)[C@H]([C@@H](C)O)NC(=O)[C@H](CCCCN)NC(=O)[C@@H]2CCCN2C(=O)[C@H]([C@@H](C)O)NC(=O)CNC(=O)[C@H](CC(=O)O)NC(=O)CNC(=O)[C@H]([C@@H](C)O)NC(=O)[C@H](Cc2ccccc2)NC(=O)[C@H]([C@@H](C)O)NC(=O)[C@H]([C@@H](C)O)NC(=O)[C@H](CCC(=O)O)NC(=O)[C@H](CC(C)C)NC(=O)[C@H](Cc2c[nH]cn2)NC(=O)[C@H]([C@@H](C)O)NC(=O)[C@H](CCC(N)=O)NC(=O)CNC(=O)[C@H]2CCCN2C(=O)[C@H](CCC(N)=O)NC(=O)[C@H]([C@@H](C)O)NC(=O)[C@H](Cc2ccccc2)NC(=O)[C@H](CCCNC(=N)N)NC1=O` [compound 46] (cyclo(THLETTFTGDGTPKTIRFTQ[dP]GQ)), the “Relative Ki (Ki mut/Ki WT)” value stood at 0.89. Same read-out and setting: the same measure for `CC[C@H](C)[C@@H]1NC(=O)[C@H]([C@@H](C)O)NC(=O)[C@H](CCCCN)NC(=O)[C@@H]2CCCN2C(=O)[C@H]([C@@H](C)O)NC(=O)CNC(=O)[C@H](CC(=O)O)NC(=O)CNC(=O)[C@H]([C@@H](C)O)NC(=O)[C@H](Cc2ccccc2)NC(=O)[C@H]([C@@H](C)O)NC(=O)[C@H]([C@@H](C)O)NC(=O)[C@H](CCC(=O)O)NC(=O)[C@H](CC(C)C)NC(=O)[C@H](Cc2c[nH]cn2)NC(=O)[C@H]([C@@H](C)O)NC(=O)[C@H](CCC(N)=O)NC(=O)CNC(=O)[C@H]2CCCN2C(=O)[C@H](CCC(N)=O)NC(=O)[C@H]([C@@H](C)O)NC(=O)[C@H](Cc2ccc(O)cc2)NC(=O)[C@H](CCCNC(=N)N)NC1=O` [compound 47] (cyclo(THLETTFTGDGTPKTIRYTQ[dP]GQ)): 0.85; for `CC[C@H](C)[C@@H]1NC(=O)[C@H]([C@@H](C)O)NC(=O)[C@H](CCCCN)NC(=O)[C@@H]2CCCN2C(=O)[C@H]([C@@H](C)O)NC(=O)CNC(=O)[C@H](CC(=O)O)NC(=O)CNC(=O)[C@H]([C@@H](C)O)NC(=O)[C@H](Cc2ccccc2)NC(=O)[C@H]([C@@H](C)O)NC(=O)[C@H]([C@@H](C)O)NC(=O)[C@H](CCC(=O)O)NC(=O)[C@H](CC(C)C)NC(=O)[C@H](Cc2c[nH]cn2)NC(=O)[C@H]([C@@H](C)O)NC(=O)[C@H](CCC(N)=O)NC(=O)CNC(=O)[C@H]2CCCN2C(=O)[C@H](CCC(N)=O)NC(=O)[C@H](Cc2ccccc2)NC(=O)[C@H](C(C)C)NC(=O)[C@H](CCCNC(=N)N)NC1=O` [compound 48] (cyclo(THLETTFTGDGTPKTIRVFQ[dP]GQ)): 1.05; for `CC[C@H](C)[C@@H]1NC(=O)[C@H]([C@@H](C)O)NC(=O)[C@H](CCCCN)NC(=O)[C@@H]2CCCN2C(=O)[C@H]([C@@H](C)O)NC(=O)CNC(=O)[C@H](CC(=O)O)NC(=O)CNC(=O)[C@H]([C@@H](C)O)NC(=O)[C@H](Cc2ccccc2)NC(=O)[C@H]([C@@H](C)O)NC(=O)[C@H]([C@@H](C)O)NC(=O)[C@H](CCC(=O)O)NC(=O)[C@H](CC(C)C)NC(=O)[C@H](Cc2c[nH]cn2)NC(=O)[C@H]([C@@H](C)O)NC(=O)[C@H](CCC(N)=O)NC(=O)CNC(=O)[C@H]2CCCN2C(=O)[C@H](CCC(N)=O)NC(=O)[C@H](Cc2ccc(O)cc2)NC(=O)[C@H](C(C)C)NC(=O)[C@H](CCCNC(=N)N)NC1=O` [compound 49] (cyclo(THLETTFTGDGTPKTIRVYQ[dP]GQ)): 1.25.

The record behind these values is US20230220021A1, “CYCLIC PEPTIDE INHIBITORS OF PSD-95 AND USES THEREOF” (University of Copenhagen, priority 2020, published 2023).
